# Literature values as cited in patent publication US20190209538A1, “Precision Controlled Load and Release Particles for Post-Operative Pain” (LIQUIDIA TECHNOLOGIES, INC., priority 2016, published 2019).
# Tests used:
# [1] = room temperature, aqueous system between pH 7.0 and pH 9.0
# [2] = in vivo
solubility relative to bupivacaine HCl [1],clearance rate [2] [L/min],SMILES
less soluble than bupivacaine HCl,–,"CCCCN1CCCCC1C(=O)Nc1c(C)cccc1C (stereo not shown) [bupivacaine free base, bupivacaine]"
–,0.58,CCCCN1CCCCC1C(=O)Nc1c(C)cccc1C (stereo not shown) [bupivacaine]
–,0.32,CCCCN1CCCC[C@H]1C(=O)Nc1c(C)cccc1C [levobupivacaine]
–,~0.72,CCCN1CCCC[C@H]1C(=O)Nc1c(C)cccc1C [ropivacaine]
